According to the NIST ThermoML archive (doi:10.1021/je900757k):

Assay: isobaric coefficient of expansion
Settings: Liquid, DSC

c1ccccc1 [benzene]
isobaric coefficient of expansion
Settings	298.15 K	308.15 K	318.15 K	328.15 K	338.15 K	348.15 K
5000 kPa	0.0012 1/K	0.00121 1/K	0.00123 1/K	0.00126 1/K	0.00129 1/K	0.00132 1/K
10000 kPa	0.00116 1/K	0.00118 1/K	0.00119 1/K	0.00121 1/K	0.00123 1/K	0.00125 1/K
15000 kPa	0.00114 1/K	0.00115 1/K	0.00115 1/K	0.00117 1/K	0.00118 1/K	0.0012 1/K
20000 kPa	0.00111 1/K	0.00112 1/K	0.00113 1/K	0.00113 1/K	0.00114 1/K	0.00115 1/K
25000 kPa	0.00108 1/K	0.00108 1/K	0.00109 1/K	0.0011 1/K	0.0011 1/K	0.00111 1/K
30000 kPa	0.00105 1/K	0.00106 1/K	0.00106 1/K	0.00106 1/K	0.00107 1/K	0.00108 1/K
35000 kPa	0.00103 1/K	0.00103 1/K	0.00104 1/K	0.00104 1/K	0.00104 1/K	0.00104 1/K
40000 kPa	0.00101 1/K	0.00101 1/K	0.00101 1/K	0.00101 1/K	0.00101 1/K	0.00102 1/K
45000 kPa	0.000988 1/K	0.00099 1/K	0.000989 1/K	0.000989 1/K	0.000985 1/K	0.000986 1/K
50000 kPa	0.000971 1/K	0.000972 1/K	0.00097 1/K	0.000966 1/K	0.000966 1/K	0.000963 1/K
55000 kPa	0.000954 1/K	0.000955 1/K	0.000951 1/K	0.000948 1/K	0.000945 1/K	0.000941 1/K

CCCCCCCCCC [decane]
isobaric coefficient of expansion
Settings	278.15 K	288.15 K	298.15 K	308.15 K	318.15 K	328.15 K	338.15 K	348.15 K
5000 kPa	0.000969 1/K	0.000985 1/K	0.001 1/K	0.00102 1/K	0.00103 1/K	0.00105 1/K	0.00107 1/K	0.00108 1/K
10000 kPa	0.000945 1/K	0.000958 1/K	0.000975 1/K	0.000988 1/K	0.001 1/K	0.00101 1/K	0.00103 1/K	0.00103 1/K
15000 kPa	0.000922 1/K	0.000933 1/K	0.000949 1/K	0.000956 1/K	0.00097 1/K	0.000977 1/K	0.000987 1/K	0.000992 1/K
20000 kPa	0.000899 1/K	0.000907 1/K	0.000918 1/K	0.000928 1/K	0.000935 1/K	0.000942 1/K	0.00095 1/K	0.000956 1/K
25000 kPa	0.000878 1/K	0.000886 1/K	0.000896 1/K	0.000902 1/K	0.000907 1/K	0.000915 1/K	0.000919 1/K	0.000922 1/K
30000 kPa	0.000859 1/K	0.000868 1/K	0.000871 1/K	0.000878 1/K	0.000883 1/K	0.000885 1/K	0.000891 1/K	0.000893 1/K
35000 kPa	0.000843 1/K	0.000846 1/K	0.000849 1/K	0.000856 1/K	0.000858 1/K	0.000862 1/K	0.000862 1/K	0.000865 1/K
40000 kPa	0.000817 1/K	0.000823 1/K	0.000829 1/K	0.000834 1/K	0.000833 1/K	0.000833 1/K	0.000836 1/K	0.000835 1/K
45000 kPa	0.000807 1/K	0.000812 1/K	0.000812 1/K	0.000812 1/K	0.000815 1/K	0.000815 1/K	0.000816 1/K	0.000816 1/K
50000 kPa	0.000793 1/K	0.000797 1/K	0.000794 1/K	0.000796 1/K	0.000802 1/K	0.000797 1/K	0.000796 1/K	0.000795 1/K
55000 kPa	0.000784 1/K	0.00078 1/K	0.00078 1/K	0.000782 1/K	0.000781 1/K	0.000781 1/K	0.000779 1/K	0.000778 1/K
